Laboratory results as given in ChEMBL document CHEMBL5241080, “Quinoline anticancer agents active on DNA and DNA-interacting proteins: From classical to emerging therapeutic targets” (Eur J Med Chem, 2021).
Blank lines part the entries; values can stand above or below the molecule they belong to.

Legend:
[1] = Oral bioavailability CD-1 mouse at 30 mg/kg; assay type: ADME, organism-based; conditions: in vivo
[2] = Cytotoxicity against human CAL1 cells by MTT assay; assay type: functional
[3] = tested on: SW480; test: Cytotoxicity against human SW480 cells by MTT assay; assay type: functional
[4] = tested on: C-33-A; test: Cytotoxicity against human C-33-A cells by MTT assay; assay type: functional
[5] = tested on: MCF7; test: Cytotoxicity against human MCF7 cells by MTT assay; assay type: functional
[6] = tested on: HeLa; test: Cytotoxicity against human HeLa cells by MTT assay; assay type: functional
[7] = tested on: K-562R; test: Cytotoxicity against human K-562R cells by MTT assay; assay type: functional
[8] = tested on: SW-620; test: Cytotoxicity against human SW620 cells by MTT assay; assay type: functional
[9] = tested on: BT-483; test: Antiproliferative activity against human BT-483 cells; assay type: functional, cell-based
[10] = tested on: RPMI-8226; test: Antiproliferative activity against human RPMI-8226 cells; assay type: functional, cell-based
[11] = target: Protein deacetylase HDAC6 (Homo sapiens, UniProt Q9UBN7); test: Inhibition of HDAC6 (unknown origin)
[12] = tested on: A549; test: Antiproliferative activity against human A549 cells; assay type: functional, cell-based
[13] = tested on: U-266; test: Antiproliferative activity against human U-266 cells; assay type: functional, cell-based
[14] = tested on: NCI-H929; test: Antiproliferative activity against human NCI-H929 cells; assay type: functional, cell-based
[15] = tested on: B16-F10; test: Antiproliferative activity against mouse B16-F10 cells; assay type: functional, cell-based
[16] = tested on: MCF7; test: Antiproliferative activity against human MCF7 cells; assay type: functional, cell-based
[17] = tested on: HeLa; test: Antiproliferative activity against human HeLa cells; assay type: functional, cell-based
[18] = tested on: Jurkat E6.1; test: Antiproliferative activity against human Jurkat E6.1 cells; assay type: functional, cell-based
[19] = Antiproliferative activity against human MED-MEB-8A cells; assay type: functional, cell-based
[20] = target: Histone deacetylase 8 (Homo sapiens, UniProt Q9BY41); test: Inhibition of HDAC8 (unknown origin)
[21] = tested on: PC-3; test: Antiproliferative activity against human PC-3 cells; assay type: functional, cell-based
[22] = target: T1, DNA topoisomerase 1 (Homo sapiens, UniProt P11387); test: Inhibition of topoisomerase 1 (unknown origin)
T1 sequence (P11387 whole entry): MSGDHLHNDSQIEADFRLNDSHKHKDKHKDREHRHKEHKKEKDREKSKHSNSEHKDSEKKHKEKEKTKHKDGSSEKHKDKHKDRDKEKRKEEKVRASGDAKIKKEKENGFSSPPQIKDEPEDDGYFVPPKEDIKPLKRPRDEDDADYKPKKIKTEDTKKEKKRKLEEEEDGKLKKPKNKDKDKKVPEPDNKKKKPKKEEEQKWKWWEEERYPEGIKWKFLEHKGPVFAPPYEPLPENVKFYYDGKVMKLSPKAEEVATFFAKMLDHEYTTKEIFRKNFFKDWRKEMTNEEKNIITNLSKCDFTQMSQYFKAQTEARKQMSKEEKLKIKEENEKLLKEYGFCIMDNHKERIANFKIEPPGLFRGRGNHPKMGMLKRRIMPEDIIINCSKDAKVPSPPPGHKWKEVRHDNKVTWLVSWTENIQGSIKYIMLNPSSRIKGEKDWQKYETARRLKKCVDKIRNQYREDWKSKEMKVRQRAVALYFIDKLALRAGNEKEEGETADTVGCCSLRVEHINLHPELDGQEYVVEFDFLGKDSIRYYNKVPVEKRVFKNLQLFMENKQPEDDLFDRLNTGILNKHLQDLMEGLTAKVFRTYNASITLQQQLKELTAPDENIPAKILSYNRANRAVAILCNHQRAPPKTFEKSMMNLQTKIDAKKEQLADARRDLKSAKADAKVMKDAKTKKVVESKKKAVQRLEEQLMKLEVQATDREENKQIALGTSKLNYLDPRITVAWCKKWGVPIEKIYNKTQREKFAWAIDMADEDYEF

[23] = Inhibition of topoisomerase 2 (unknown origin); design: species or system Homo sapiens
[24] = Antiproliferative activity against mouse P338 cells; assay type: functional, cell-based
[25] = tested on: KB; test: Antiproliferative activity against human KB cells; assay type: functional, cell-based
[26] = tested on: HCT-116; test: Antiproliferative activity against human HCT-116 cells; assay type: functional, cell-based
[27] = target: Histone deacetylase; test: Inhibition of HDAC (unknown origin); assay type: protein assay, Homo sapiens
[28] = tested on: HeLa; test: Antiproliferative activity against human HeLa cells incubated for 24 hrs by WST-1 assay; assay type: functional, cell-based
[29] = tested on: HCT-116; test: Cytotoxicity against human HCT-116 cells assessed as inhibition of cell growth incubated for 72 hrs by MTT assay; assay type: functional, cell-based; conditions: HCT-116, 72 h
[30] = tested on: A549; test: Cytotoxicity against human A549 cells incubated for 72 hrs by MTT assay; assay type: functional, cell-based; conditions: A549, 72 h
[31] = target: Hepatocyte growth factor receptor (Homo sapiens, UniProt P08581); test: Inhibition of c-MET (unknown origin)
[32] = Antiproliferative activity against human RPMI cells assessed as reduction cell viability incubated for 48 hrs by MTT assay; assay type: functional, cell-based
[33] = tested on: U-937; test: Antiproliferative activity against human U-937 cells assessed as reduction cell viability incubated for 48 hrs by MTT assay; assay type: functional, cell-based; conditions: U-937, 48 h
[34] = tested on: PC-3; test: Antiproliferative activity against human PC-3 cells assessed as reduction cell viability incubated for 48 hrs by MTT assay; assay type: functional, cell-based; conditions: PC-3, 48 h
[35] = target: DNA (cytosine-5)-methyltransferase 1 (Homo sapiens, UniProt P26358); test: Inhibition of human recombinant full-length N-terminal GST tagged DNMT1 (2 to 1632 residues) expressed in Sf9 insect cells using poly(dI-dC) as substrate by hotspot assay
[36] = tested on: Raji; test: Antiproliferative activity against human Raji cells assessed as reduction cell viability incubated for 48 hrs by MTT assay; assay type: functional, cell-based
[37] = target: DNA (cytosine-5)-methyltransferase 3A (Homo sapiens, UniProt Q9Y6K1); test: Inhibition of human recombinant DNMT3A (214 to 912 residues)expressed in Sf9 insect cells using lambda DNA as substrate by scintillation/filter plate assay
[38] = tested on: MDA-MB-231; test: Antiproliferative activity against human MDA-MB-231 cells assessed as reduction cell viability incubated for 48 hrs by MTT assay; assay type: functional, cell-based; conditions: MDA-MB-231, 48 h
[39] = tested on: A549; test: Antiproliferative activity against human A549 cells assessed as reduction in cell viability incubated for 48 hrs by MTT assay; assay type: functional, cell-based; conditions: A549, 48 h
[40] = tested on: HeLa; test: Antiproliferative activity against human HeLa cells assessed as reduction in cell viability incubated for 48 hrs by MTT assay; assay type: functional, cell-based

Protein deacetylase HDAC6, sequence (Q9UBN7 whole entry): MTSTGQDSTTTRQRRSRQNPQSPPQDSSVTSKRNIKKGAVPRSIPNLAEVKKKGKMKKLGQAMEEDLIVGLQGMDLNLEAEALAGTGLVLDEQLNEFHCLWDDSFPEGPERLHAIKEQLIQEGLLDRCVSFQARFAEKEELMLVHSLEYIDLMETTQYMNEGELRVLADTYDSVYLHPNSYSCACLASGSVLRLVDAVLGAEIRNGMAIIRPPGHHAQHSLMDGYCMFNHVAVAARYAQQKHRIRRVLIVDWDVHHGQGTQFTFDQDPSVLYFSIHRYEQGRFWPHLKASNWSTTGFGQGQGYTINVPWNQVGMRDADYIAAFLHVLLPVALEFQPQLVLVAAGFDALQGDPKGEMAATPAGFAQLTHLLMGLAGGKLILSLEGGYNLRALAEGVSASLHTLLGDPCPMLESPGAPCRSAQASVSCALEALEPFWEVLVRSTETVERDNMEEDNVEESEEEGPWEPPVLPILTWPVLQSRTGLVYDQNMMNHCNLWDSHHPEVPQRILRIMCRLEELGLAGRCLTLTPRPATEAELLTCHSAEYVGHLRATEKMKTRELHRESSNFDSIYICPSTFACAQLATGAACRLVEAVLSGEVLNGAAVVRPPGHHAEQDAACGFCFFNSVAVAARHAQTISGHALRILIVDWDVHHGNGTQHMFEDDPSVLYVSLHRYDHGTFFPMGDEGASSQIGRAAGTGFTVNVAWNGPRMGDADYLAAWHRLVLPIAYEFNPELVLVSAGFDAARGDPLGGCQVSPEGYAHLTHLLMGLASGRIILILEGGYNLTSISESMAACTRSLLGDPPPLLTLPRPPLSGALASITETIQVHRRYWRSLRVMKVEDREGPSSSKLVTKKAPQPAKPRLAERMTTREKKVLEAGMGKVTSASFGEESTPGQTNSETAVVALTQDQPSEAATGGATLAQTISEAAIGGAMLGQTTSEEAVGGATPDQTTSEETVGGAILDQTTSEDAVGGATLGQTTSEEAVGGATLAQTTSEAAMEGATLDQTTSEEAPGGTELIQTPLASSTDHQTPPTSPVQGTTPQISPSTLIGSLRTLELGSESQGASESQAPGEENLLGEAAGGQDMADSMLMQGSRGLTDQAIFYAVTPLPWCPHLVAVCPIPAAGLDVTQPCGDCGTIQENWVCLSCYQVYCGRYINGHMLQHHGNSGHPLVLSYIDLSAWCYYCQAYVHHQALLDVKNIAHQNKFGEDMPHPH
DNA (cytosine-5)-methyltransferase 3A, sequence (Q9Y6K1 whole entry, looked up, the tested form may be a part): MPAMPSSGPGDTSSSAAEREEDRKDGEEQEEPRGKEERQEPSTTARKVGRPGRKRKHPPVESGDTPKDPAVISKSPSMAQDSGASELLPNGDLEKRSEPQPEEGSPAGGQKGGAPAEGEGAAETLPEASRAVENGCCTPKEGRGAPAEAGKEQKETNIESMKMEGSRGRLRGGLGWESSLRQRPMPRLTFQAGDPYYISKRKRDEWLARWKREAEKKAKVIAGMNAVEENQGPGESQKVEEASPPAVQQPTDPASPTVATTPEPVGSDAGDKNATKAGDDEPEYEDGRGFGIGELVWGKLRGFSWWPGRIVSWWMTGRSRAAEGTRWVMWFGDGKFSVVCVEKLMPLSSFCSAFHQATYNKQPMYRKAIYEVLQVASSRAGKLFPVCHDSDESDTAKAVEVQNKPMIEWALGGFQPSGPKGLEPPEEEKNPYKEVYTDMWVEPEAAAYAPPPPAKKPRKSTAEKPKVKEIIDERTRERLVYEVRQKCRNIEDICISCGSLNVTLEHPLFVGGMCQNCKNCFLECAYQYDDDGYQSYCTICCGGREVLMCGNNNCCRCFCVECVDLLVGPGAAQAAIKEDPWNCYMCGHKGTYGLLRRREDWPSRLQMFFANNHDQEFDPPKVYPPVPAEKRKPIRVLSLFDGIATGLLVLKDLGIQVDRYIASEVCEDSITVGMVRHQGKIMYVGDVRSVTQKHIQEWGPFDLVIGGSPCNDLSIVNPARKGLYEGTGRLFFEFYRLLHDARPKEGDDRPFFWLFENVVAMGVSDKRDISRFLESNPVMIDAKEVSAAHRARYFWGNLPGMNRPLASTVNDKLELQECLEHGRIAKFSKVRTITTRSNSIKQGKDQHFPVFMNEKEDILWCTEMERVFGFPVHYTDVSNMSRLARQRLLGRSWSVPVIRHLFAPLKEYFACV
DNA (cytosine-5)-methyltransferase 1, sequence (P26358 whole entry, the tested form may be a part): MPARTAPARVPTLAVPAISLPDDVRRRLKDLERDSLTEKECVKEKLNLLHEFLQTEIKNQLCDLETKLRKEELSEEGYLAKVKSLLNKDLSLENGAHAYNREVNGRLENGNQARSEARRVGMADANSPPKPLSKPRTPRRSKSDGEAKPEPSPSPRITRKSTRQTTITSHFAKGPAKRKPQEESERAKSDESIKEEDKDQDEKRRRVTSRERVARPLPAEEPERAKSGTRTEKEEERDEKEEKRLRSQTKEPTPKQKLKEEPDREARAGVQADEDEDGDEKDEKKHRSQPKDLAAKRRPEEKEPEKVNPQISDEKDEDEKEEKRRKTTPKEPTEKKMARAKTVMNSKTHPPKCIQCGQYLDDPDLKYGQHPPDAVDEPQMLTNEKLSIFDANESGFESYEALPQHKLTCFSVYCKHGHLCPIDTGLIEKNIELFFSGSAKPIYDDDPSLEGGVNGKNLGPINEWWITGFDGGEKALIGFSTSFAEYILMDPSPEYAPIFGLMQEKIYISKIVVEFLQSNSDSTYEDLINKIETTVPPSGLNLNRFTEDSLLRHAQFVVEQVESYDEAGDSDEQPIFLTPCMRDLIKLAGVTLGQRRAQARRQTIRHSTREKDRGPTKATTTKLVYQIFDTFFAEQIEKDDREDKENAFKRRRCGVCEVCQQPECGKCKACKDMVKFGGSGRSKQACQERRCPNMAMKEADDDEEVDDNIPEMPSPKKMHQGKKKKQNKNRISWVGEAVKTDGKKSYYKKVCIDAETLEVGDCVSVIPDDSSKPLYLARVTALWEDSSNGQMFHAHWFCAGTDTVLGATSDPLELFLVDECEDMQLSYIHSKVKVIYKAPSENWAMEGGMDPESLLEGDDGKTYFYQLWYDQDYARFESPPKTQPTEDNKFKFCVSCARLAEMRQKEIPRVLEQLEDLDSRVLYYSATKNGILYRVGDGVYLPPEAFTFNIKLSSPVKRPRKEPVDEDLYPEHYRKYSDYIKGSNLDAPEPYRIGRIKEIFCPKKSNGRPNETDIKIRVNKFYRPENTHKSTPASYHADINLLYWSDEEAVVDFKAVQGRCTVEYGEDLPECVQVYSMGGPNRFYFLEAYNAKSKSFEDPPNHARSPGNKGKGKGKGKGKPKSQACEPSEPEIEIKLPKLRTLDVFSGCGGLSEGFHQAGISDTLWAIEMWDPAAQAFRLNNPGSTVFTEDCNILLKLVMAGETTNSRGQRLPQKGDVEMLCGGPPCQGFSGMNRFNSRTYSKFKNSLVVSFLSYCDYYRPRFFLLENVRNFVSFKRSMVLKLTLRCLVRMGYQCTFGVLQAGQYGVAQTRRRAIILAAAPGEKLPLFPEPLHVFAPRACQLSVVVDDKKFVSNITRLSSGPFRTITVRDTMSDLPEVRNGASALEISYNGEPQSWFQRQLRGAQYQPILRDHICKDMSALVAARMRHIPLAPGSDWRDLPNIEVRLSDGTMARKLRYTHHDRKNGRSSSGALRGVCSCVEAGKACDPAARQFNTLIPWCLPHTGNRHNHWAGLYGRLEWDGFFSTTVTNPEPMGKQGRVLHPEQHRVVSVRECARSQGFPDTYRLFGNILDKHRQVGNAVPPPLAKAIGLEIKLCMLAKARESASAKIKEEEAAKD
Hepatocyte growth factor receptor, sequence (P08581 whole entry): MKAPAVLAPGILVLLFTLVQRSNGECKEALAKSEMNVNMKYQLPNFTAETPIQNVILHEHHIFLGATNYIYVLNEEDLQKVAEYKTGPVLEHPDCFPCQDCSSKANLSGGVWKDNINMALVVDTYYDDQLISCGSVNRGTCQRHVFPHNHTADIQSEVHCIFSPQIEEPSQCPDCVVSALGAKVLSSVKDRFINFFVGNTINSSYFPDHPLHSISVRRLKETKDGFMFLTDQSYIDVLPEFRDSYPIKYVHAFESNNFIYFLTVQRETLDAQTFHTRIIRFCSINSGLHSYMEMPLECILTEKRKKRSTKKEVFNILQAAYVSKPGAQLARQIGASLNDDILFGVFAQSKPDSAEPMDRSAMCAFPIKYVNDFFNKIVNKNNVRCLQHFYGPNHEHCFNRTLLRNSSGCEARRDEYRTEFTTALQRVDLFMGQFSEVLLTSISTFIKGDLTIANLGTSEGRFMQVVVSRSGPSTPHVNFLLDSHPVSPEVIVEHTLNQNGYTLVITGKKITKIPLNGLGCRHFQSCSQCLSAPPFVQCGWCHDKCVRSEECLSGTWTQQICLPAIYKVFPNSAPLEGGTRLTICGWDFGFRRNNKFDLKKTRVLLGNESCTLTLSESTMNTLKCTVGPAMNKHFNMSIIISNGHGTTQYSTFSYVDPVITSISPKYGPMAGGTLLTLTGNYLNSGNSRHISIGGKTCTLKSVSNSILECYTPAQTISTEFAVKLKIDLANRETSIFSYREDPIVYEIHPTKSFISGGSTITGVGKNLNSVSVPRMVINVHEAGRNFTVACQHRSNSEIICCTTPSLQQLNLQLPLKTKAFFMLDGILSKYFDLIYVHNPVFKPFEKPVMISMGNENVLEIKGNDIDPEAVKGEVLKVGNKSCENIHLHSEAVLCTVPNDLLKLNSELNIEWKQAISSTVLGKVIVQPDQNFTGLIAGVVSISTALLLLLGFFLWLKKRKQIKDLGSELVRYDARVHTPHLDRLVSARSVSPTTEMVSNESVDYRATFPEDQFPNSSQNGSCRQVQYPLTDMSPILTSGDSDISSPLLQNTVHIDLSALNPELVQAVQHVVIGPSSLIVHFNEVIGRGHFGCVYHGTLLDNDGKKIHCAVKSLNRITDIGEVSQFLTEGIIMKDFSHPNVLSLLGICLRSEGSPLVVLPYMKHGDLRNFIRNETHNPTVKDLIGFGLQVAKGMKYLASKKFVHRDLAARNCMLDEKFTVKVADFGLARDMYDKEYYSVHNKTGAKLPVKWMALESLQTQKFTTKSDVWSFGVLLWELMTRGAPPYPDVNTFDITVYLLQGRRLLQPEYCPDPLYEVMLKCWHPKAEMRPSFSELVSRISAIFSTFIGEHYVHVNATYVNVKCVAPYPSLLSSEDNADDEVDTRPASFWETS

bioavailability [1]: 10.9%
SMILES: COc1ccc2c(c1)/C(=N\OCCN1CCCC1)c1c-2c(O)nc2ccccc12

SMILES: CCN(CC)CCNc1nc2c(Nc3ccccc3)c3ccccc3nc2s1
GI50 [2]: 15900 nM
GI50 [3]: 15900 nM
GI50 [4]: 15900 nM
GI50 [5]: 15900 nM
GI50 [6]: 15900 nM
GI50 [7]: 15900 nM
GI50 [8]: 15900 nM

IC50 [9]: 1100 nM
SMILES: COc1ccc2c(c1)/C(=N\OCCCN(C)C)c1c-2c(N2CCNCC2)nc2ccccc12

IC50 [10]: 7490 nM
IC50 [11]: 0.291 nM
IC50 [12]: 270 nM
IC50 [14]: 9140 nM
SMILES: O=C(/C=C/c1cccc(S(=O)(=O)c2ccc3ccccc3n2)c1)NO
IC50 [13]: 40600 nM

IC50 [15]: 9760 nM
IC50 [16]: 11400 nM
IC50 [17]: 11000 nM
IC50 [12]: 9120 nM
IC50 [18]: 7190 nM
IC50 [20]: 1.74 nM
SMILES: COc1cc(NC(=O)NOCCCCCC(=O)NO)c2nc(OC)cc(C)c2c1
IC50 [19]: 590 nM

IC50 [11]: 2.73 nM
IC50 [12]: 5330 nM
IC50 [21]: 3280 nM
SMILES: O=C(NO)c1ccc(CNc2cccc3cccnc23)cc1

SMILES: CN(C)CCNc1nc2cc(O)ccc2c2c1C(=O)c1ccccc1-2
IC50 [22]: 2000 nM
IC50 [23]: 6500 nM
IC50 [24]: 1.1 nM
IC50 [25]: 9.6 nM

IC90 [26]: < 10000 nM
SMILES: CCN(CC)CCOC(=O)c1ccc2c(c1)c1nc3ccccc3c(OCCN(CC)CC)c1n2CCN(CC)CC

IC50 [27]: 28 nM
IC50 [28]: 1800 nM
SMILES: C/C(=C\c1ccc(C(=O)NO)cc1)CNc1cnc2c(Br)cccc2c1

IC50 [31]: 12.5 nM
SMILES: COc1cc2c(Oc3ccc(NC(=O)C4CCN(c5ccc(F)cc5)C4=O)cc3)ccnc2cc1OCCCCCCC(=O)NO (stereo unspecified)
IC50 [29]: 0.54 nM
IC50 [30]: 1080 nM

IC50 [33]: 400 nM
IC50 [34]: 900 nM
IC50 [35]: 67000 nM
IC50 [36]: 400 nM
IC50 [37]: 17000 nM
IC50 [38]: 900 nM
SMILES: O=C(Nc1ccc(NC(=O)c2ccc(Nc3ccnc4ccccc34)cc2)cc1)OCc1ccccc1
IC50 [32]: 2400 nM

IC50 [39]: 1110 nM
bioavailability [1]: 39.8%
IC50 [22]: 2630 nM
IC50 [23]: 4950 nM
IC50 [40]: 390 nM
SMILES: CN(C)CCCO/N=C1\c2cc(OCCCN(C)C)ccc2-c2cnc3ccccc3c21
